Tests used:
[1] = Part V prolonged 24 h infusion study, plasma pharmacokinetics; format: in vivo, human; conditions: for AUCINF / AUClast / Cl / Cmax / Tmax / Vz / t1/2: continuous i.v. infusion of pyragrel 360 mg within 24 h, plasma, n=4, mean ± SD
Description: (§1) Pyragrel administration regimens are as follows: In the single-escalating-dose study (Part I), a total of 52 subjects are enrolled to receive one of three treatments (pyragrel, ozagrel, or placebo, diluted in 500 Ml normal saline) as a 3-h i.v. infusion. Six dose levels of pyragrel (30, 60,120, 180, 240, 300 mg) were intravenously infused to healthy subjects. Of the 12 subjects each at the first three dose groups (30, 60, and 120 mg), 8 received pyragrel, 2 received ozagrel (80 mg), and 2 received placebo. Eight subjects were assigned as 4/2/2 for pyragrel, ozagrel, and placebo at the 180 mg level. Only four subjects were enrolled at the 240- and 300-mg group each; all received pyragrel. […] In the saline-volume-changed study (Part II), the safety and pharmacokinetics of pyragrel were assessed by decreasing the volume of dilution saline. Four subjects received a single 3 h infusion of pyragrel 240 mg diluted in 250 ml saline instead of the 500 ml used in Part I. Blood samples were collected at multiple time points before and after the initiation of the infusion in Part I and Part II; 15 blood samples were predetermined as follows: before drug administration (time 0), 0.5, 1, 2, 3 (4 samples collected during infusion), 3.25, 3.5, 4, 5, 7, 9, 11, 15, 24, and 48 h (10 samples collected post infusion) after the initiation of the infusion. In the multiple-dose study (Part III), 12 subjects received a single 3 h infusion of 180 mg pyragrel (diluted in 250 ml saline) on Day 1 and Day 6 and twice 3 h infusion of 180 mg pyragrel from Day 2 to 5; 14 blood samples were collected on Day 1 and Day 6 before drug administration (0 h), 0.5, 1, 2, 3, 3.25, 3.5, 4, 5, 7, 9, 11, 15, 24 h after the initiation of the infusion; moreover, 5 ml cubital vein blood was collected each time right before pyragrel infusion on Day 2 to Day 5. In the 3×3 crossover study (Part IV), 12 subjects were randomized to receive each of the three dosing groups (60, 120, or 240 mg) of pyragrel (diluted with 250 ml saline, 3 h infusion) per period, with a 7-day washout period between doses. Sixteen blood samples were collected as follows: before drug administration (0 h), 0.17, 0.35, 0.5, 1, 2, 3, 3.25, 3.5, 4, 5, 7, 9, 11, 15, and 24 h after the initiation of the infusion at each period. In the prolonged infusion study (Part V), four subjects received continuous 24 h infusion of pyragrel 360 mg (diluted in 600 ml saline); 19 blood samples were collected as follows: before drug administration (0 h), 0.25, 0.5, 1, 2, 4, 8, 12, 16, 20 (nine samples collected during administration), 24.25, 24.5, 25, 26, 28, 30, 32, 36, and 48 h after the initiation of the infusion (details shown in Figure 1 ). In all five cohorts, 5 ml of cubital vein blood was collected with a sodium heparin anticoagulant tube and centrifuged at 3000 r·min^-1. Each plasma sample was divided into two aliquots and stored at −20°C until further bioanalysis. […] Briefly, 10 µl of the extract drug from […] was injected onto a Zorbax EcLipse XDB C18 column (2.1 mm × 150 mm, 5 μm) (Agilent, USA) using isocratic elution with a mobile phase composed of methanol, water, and formic acid (65:35:0.1, v/v/v). Determination of the analytes was achieved by tandem-mass spectrometry with positive electrospray ionization.
(§2) Pharmacokinetic parameters were calculated using the noncompartmental model (NCA module), WinNonlin 6.1 (Pharsight Corporation, Mountain View, CA, USA). Statistical analysis was performed with SPSS 18. The actual dosing and sampling times were utilized in the analysis. Pharmacokinetic parameters were summarized by dose regimens using descriptive statistics, including n, mean, and the coefficient of variation (CV). For Tmax, only n, min, median, and max were reported.

[2] = Acute toxicity study in mice; format: in vivo
[3] = Part II saline-volume-changed study, plasma pharmacokinetics; format: in vivo, human; conditions: single-dose infusion of 240 mg pyragrel diluted in 250 ml saline, n=4
Description: as §1, §2

[4] = Part III multiple-dose study, plasma pharmacokinetics; format: in vivo, human; conditions: for Accumulation on repeated dose, in words: repeated dose of pyragrel 180 mg for 6 days (once- or twice-daily dosing)
Description: as §1, §2

[5] = Part IV urinary excretion of pyragrel and four metabolites; format: in vivo, human; conditions: for Cumulative urinary drug recovery (normalized to pyragrel) within 24 h: n=12, Mean ± SD; for Total cumulative urine excreted amounts over 24 h: 12 subjects; for Accumulative urinary excretion rate: over 24 h
Description: Urine samples were collected after the initiation of pyragrel infusion as follows in Part IV: 0–3 (3 h infusion period), 3–7, 7–11, 11–15, and 15–24 h after pyragrel administration during each period. […] Production of 11-dehydro-thrombxane B2 (11-D-HTXB2) in urine sample was detected by ELISA method.

[6] = Part III, metabolite in plasma, multiple dose i.v. infusion of 180 mg pyragrel
[7] = metabolite in plasma, single dose of 180 mg pyragrel
[8] = Part III, multiple dose, 3-h infusions of pyragrel 180 mg for 6 days, plasma, n=12
[9] = Part III, single dose, 3-h infusion of pyragrel 180 mg, plasma, n=12
[10] = single 3 h infusion of pyragrel 60 mg
[11] = single 3 h infusion of pyragrel 240 mg

With COc1cc(CCC(=O)O)ccc1OCc1nc(C)c(C)nc1C [BBS] the AUCINF [1] was 11,533 ± 3,946 h*µg·L^-1, the AUClast [1] was 11,500 ± 3,952 h*µg·L^-1 and the Cl [1] was 34.11 ± 11.36 L/h. For the same compound, the Cmax [1] was 566.1 ± 195.0 ng/mL, the Tmax [1] was 18.06 ± 4.13 h and the Vz [1] was 234.4 ± 89.53 L. For the same compound, the t1/2 [1] was 4.74 ± 0.65 h, the LD50 [2] was greater than 929.7 mg/kg and the AUCINF [3] was 10315.00 ± 5472.87 ng·h/mL. It also gave an AUClast [3] of 10085.90 ± 5357.26 ng·h/mL, a Cl [3] of 36.06 ± 33.86 L/h and a Cmax [3] of 2066.22 ± 977.65 ng/mL. For the same compound, the MRTINF [3] was 4.13 ± 0.70 h, the MRTlast [3] was 3.50 ± 0.74 h and the Tmax [3] was 3.19 ± 0.24 h. The Vz [3] was 372.66 ± 424.67 L, the t1/2 [3] was 6.31 ± 1.38 h and the λz [3] was 0.11 ± 0.03 h⁻¹. The AUCINF [4, 6] was 7027.46 ± 3017.92 µg·h/L, the AUClast [4, 6] was 6797.36 ± 2919.19 µg·h/L and the Cl [4, 6] was 35.50 ± 18.33 L/h. It also gave a Cmax [4, 6] of 1356.91 ± 564.13 µg/L, a Tmax [4, 6] of 3.19 ± 0.11 h and a Vz [4, 6] of 152.37 ± 94.36 L. For the same compound, the t1/2 [4, 6] was 6.07 ± 2.11 h, the R ([4]; Part III, metabolite, multiple vs single dose of 180 mg pyragrel, footnote d not given) was 1.27 ± 0.13 and the AA ([4]; Part III, metabolite, multiple vs single dose of 180 mg pyragrel, footnote e not given) was 1.13 ± 0.24. For the same compound, the AUCINF [4, 7] was 6145.79 ± 2339.86 µg·h/L, the AUClast [4, 7] was 6022.22 ± 2291.72 µg·h/L and the Cl [4, 7] was 36.52 ± 23.08 L/h. It also gave a Cmax [4, 7] of 1324.23 ± 447.99 µg/L, a Tmax [4, 7] of 3.25 ± 0.15 h and a Vz [4, 7] of 285.61 ± 221.29 L. For the same compound, the t1/2 [4, 7] was 5.31 ± 1.42 h, the “Accumulation on repeated dose, in words” value [4] was “no accumulation” and the “Cumulative urinary drug recovery (normalized to pyragrel) within 24 h” value ([5]; single dose of pyragrel 60 mg) was 3.90 ± 2.11%. The “Cumulative urinary drug recovery (normalized to pyragrel) within 24 h” value ([5]; single dose of pyragrel 120 mg) was 1.93 ± 0.85% and the “Cumulative urinary drug recovery (normalized to pyragrel) within 24 h” value ([5]; single dose of pyragrel 240 mg) was 2.75 ± 0.97%.
For COc1cc(C=CC(=O)[O-])ccc1OCc1nc(C)c(C)nc1C.[Na+] [Pyragrel, sodium pyragrel], the “Plasma concentration remaining, fraction of Cmax” value ([1]; at 4 h post-infusion) was 1/20, the AUCINF [1] was 14,995 ± 2,494 h*µg·L^-1 and the AUClast [1] was 14,984 ± 2,497 h*µg·L^-1. It also gave a Cl [1] of 24.47 ± 3.75 L/h, a Cmax [1] of 861.7 ± 155.1 ng/mL and a Tmax [1] of 14.00 ± 7.66 h. For the same compound, the Vz [1] was 260.2 ± 144.4 L, the t1/2 [1] was 7.05 ± 3.74 h and the AUCINF ([1]; listed as pyragrel) was 14,994.57 ± 2,493.9 h*µg·L^-1. The AUClast ([1]; listed as pyragrel) was 14,984.40 ± 2,496.64 h*µg·L^-1, the Cmax ([1]; listed as pyragrel) was 861.67 ± 155.05 ng/mL and the LD50 [2] was 929.7 mg/kg. For the same compound, the AUCINF [3] was 9638.78 ± 1487.08 ng·h/mL, the AUClast [3] was 9600.11 ± 1446.10 ng·h/mL and the Cl [3] was 25.38 ± 4.18 L/h. The Cmax [3] was 3360.73 ± 622.63 ng/mL, the MRTINF [3] was 1.02 ± 0.33 h and the MRTlast [3] was 0.90 ± 0.16 h. The Tmax [3] was 3.00 ± 0.00 h, the Vz [3] was 221.12 ± 75.68 L and the t1/2 [3] was 6.19 ± 2.63 h. The λz [3] was 0.13 ± 0.04 h⁻¹, the AUCINF [4, 8] was 6,939.5 ± 2,072.8 h*µg·L^-1 and the AUCTAU [4, 8] was 6,854.5 ± 2,062.7 h*µg·L^-1. For the same compound, the AUClast [4, 8] was 6,909.9 ± 2066.8 h*µg·L^-1, the Cl [4, 8] was 28.49 ± 8.49 L/h and the Cmax [4, 8] was 2,447.8 ± 825.3 µg·L^-1. The Tmax [4, 8] was 2.42 ± 0.67 h, the t1/2 [4, 8] was 6.51 ± 2.73 h and the Cmin ([4]; Part III, pyragrel 180 mg, printed in column Single dose, footnote a: steady-state trough concentration, n=12) was 4.22 ± 2.26^a µg·L^-1. For the same compound, the Cavg ([4]; Part III, pyragrel 180 mg, printed in column Single dose, footnote b: steady-state peak concentration, n=12) was 571.2 ± 171.9^b µg·L^-1, the AUCINF [4, 9] was 6,680.3 ± 1,668.0 h*µg·L^-1 and the AUClast [4, 9] was 6,663.3 ± 1665.7 h*µg·L^-1. For the same compound, the Cl [4, 9] was 28.85 ± 8.75 L/h, the Tmax [4, 9] was 2.83 ± 0.39 h and the Vz [4, 9] was 226.0 ± 141.7 L. For the same compound, the t1/2 [4, 9] was 5.12 ± 1.91 h, the Cmax ([4]; Part III, single dose, 3-h infusion of pyragrel 180 mg, plasma, n=12, footnote c: steady-state average concentration) was 2,311.9 ± 514.4^c µg·L^-1 and the “Accumulation on repeated dose, in words” value [4] was “no accumulation”. For the same compound, the “Urinary excretion, share of the total drug amount” value ([5]; Part IV, three dose groups, pyragrel plus metabolites) was “more than 70%”, the “Total cumulative urine excreted amounts over 24 h” value [5, 10] was 44.80 mg and the “Accumulative urinary excretion rate” value [5, 10] was 74.67%. The “Total cumulative urine excreted amounts over 24 h” value ([5]; single 3 h infusion of pyragrel 120 mg) was 85.07 mg, the “Total cumulative urine excreted amounts over 24 h” value [5, 11] was 175.83 mg and the “Accumulative urinary excretion rate” value [5, 11] was 73.26%. For the same compound, the “Cumulative urinary drug recovery (normalized to pyragrel) within 24 h” value ([5]; single dose of pyragrel 60 mg) was 0.94 ± 0.30%, the “Cumulative urinary drug recovery (normalized to pyragrel) within 24 h” value ([5]; single dose of pyragrel 120 mg) was 0.67 ± 0.14% and the “Cumulative urinary drug recovery (normalized to pyragrel) within 24 h” value ([5]; single dose of pyragrel 240 mg) was 0.79 ± 0.28%.

Source: publication PMC6821791, “Phase I Trial of Pyragrel, a Novel Thromboxane Synthetase Inhibitor, to Evaluate the Safety, Tolerability, and Pharmacokinetics in Healthy Volunteers” (Frontiers in Pharmacology, 2019)
